Experimental data taken from patent US20240360143A1, “[1,2,4]TRIAZOLO[4,3-A]PYRIMIDIN-7(8H)-ONE AS MITOCHONDRIAL PYRUVATE CARRIER INHIBITORS FOR USE IN THE TREATMENT OF CANCER” (MPC THERAPEUTICS SA, priority 2021, published 2024).

Columns and labels:
[1] = test system: CD8 T cells (OT1 splenocytes); assay: In vitro priming of CD8 T cells (OT1 splenocytes), memory marker expression by flow cytometry; type: cell-based, mouse; conditions: day 7, highest doses
Description: OT1 splenocytes were cultured for 3 days at a concentration of 10^6 cells per mL in RPMI medium (Gibco 61870-01) supplemented with 10% FBS, (Gibco 10270-106), 1% Penicillin/Streptomycin (Gibco 15070-063), 50 μM ß-mercaptoethanol, 1% HEPES (Gibco 15630-080), 1× Non-essential amino acids (Gibco 11140-035), 1% L-glutamine (Gibco 25030-081), 1 mM Sodium Pyruvate (Gibco 11360-039). Cells were additionally supplemented with hIL-2 100 U/ml (Glaxo-IMB), ovalbumin N4 peptide (257-264) 1 μg/ml (model peptide antigen from ovalbumin) and either different concentrations of Compound 45 or 47 or with their solvent DMSO as a control. At day 3, splenocytes were collected, washed and split, and cells were cultured for 4 additional days with 100 U/ml hIL-2 and hIL-7 (Peprotech 200-07) supplemented either with Compound 45 or 47 or DMSO. At day 7, flow cytometry analyses were performed for surface marker expression.
To evaluate the effects of MPC inhibition on T cell differentiation, OTI splenocytes were cultured in the presence of 1 μg/ml ovalbumin-derived N4 peptide, 100 IU/ml recombinant human IL-2 (rhIL-2) and the MPC inhibitors Compound 45 or 47 or control DMSO for 3 days. The cells were cultured for 4 more days in the presence of 100 IU/ml IL-2 and 10 ng/ml rhIL-7 (FIG. 1A) and the inhibitors or DMSO. When analyzing the surface expression of the central memory marker CD62L (FIG. 1B) and the pro-survival receptor CD127 (FIG. 1C) by flow cytometry on day 7, an increase in cells treated with the highest doses of compounds of the invention was observed compared to DMSO.

[2] = target: T1, mitochondrial pyruvate carrier (MPC) (Homo sapiens, UniProt O95563+Q9Y5U8); assay: Bret IC50, inhibitory activity against MPC; type: cell-based
T1 sequence (Q9Y5U8 1-109): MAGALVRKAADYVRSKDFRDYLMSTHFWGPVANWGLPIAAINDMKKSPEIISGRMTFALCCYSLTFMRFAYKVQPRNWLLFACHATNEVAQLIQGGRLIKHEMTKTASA
T1 sequence (O95563 1-127): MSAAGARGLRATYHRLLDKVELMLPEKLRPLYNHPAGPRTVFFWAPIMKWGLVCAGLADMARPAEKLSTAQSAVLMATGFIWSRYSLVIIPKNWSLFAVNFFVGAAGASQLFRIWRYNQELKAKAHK
Excerpt: (§1) The inhibition of mitochondrial pyruvate carrier (MPC) by compounds of the invention have been tested as follows and their inhibitory activity was expressed as IC50s values.
Table 2 below presents the IC50s of the compounds of the invention.

[3] = target: T1, mitochondrial pyruvate carrier (MPC); assay: Seahorse Xfe24 pyruvate-dependent OCR in HeLa cells; type: cell-based; conditions: pyruvate-dependent OCR in presence of fCCP
Description: as §1
Cells are plated in the customized Seahorse plates. For HeLa cells, seeding is at 4×10^4 cells/well in […] DMEM, 10% FBS, 1% pen/strep/glutamine. 3 wells are left blank (medium alone) for internal calibration. The assay cartridge is hydrated overnight at 37° C. in 1 ml/well XF Calibrant Solution.
Since 50 μl of compound of the invention will be injected into 450 μl washed cells, compounds are made up in assay medium at 10× the final desired concentration
For dose response analyses, compounds are tested at final concentrations 30, 5, 0.83, 0.14, 0.023 μM (1:6 serial dilutions from […])
Positive control: […] (the parent hit compound which gave rise to the actual series)
Negative control: Assay medium alone.
The seahorse reagent plate is prepared as follows and transfered to the Xfe24 analyser for the calibration step:
The medium is almost completely removed from the well without allowing cells to dry Cells are washed twice with 300 μl Assay Medium. 450 μl fresh Assay Medium is added to each well. The plate is transferred to the Xfe24 analyser for measurement of pyruvate-dependent OCR. All values are normalized to the initial basal respiration rate in each well which is measured prior to addition of compounds and designated as 100%. IC50 determination is based on the average of the 3 measurements made in the presence of fCCP, taking 30 μM parent hit compound as maximal inhibition and PBS/Ca/Mg as zero inhibition.

Row | IC50 [2] | IC50 [3] | SMILES | further results
1 | 0.167 µM | 0.184 µM | CCCc1cc(=O)[nH]c2nnc(Sc3ccccc3)n12 [Compound 47, 3-(phenylsulfanyl)-5-propyl[1,2,4]triazolo[4,3-a]pyrimidin-7 (8H)-one] | cells positive for central memory marker CD62L ([1]; vs DMSO (FIG. 1B)): increase; cells positive for pro-survival receptor CD127 ([1]; vs DMSO (FIG. 1C)): increase
2 | 0.814 µM | 0.289 µM | O=c1cc(CCOCc2ccccc2)n2c(SCc3c(F)cccc3Cl)n[nH]c2n1 [Compound 43, 5-[2-(benzyloxy)ethyl]-3-[(2-chloro-6-fluorobenzyl)sulfanyl][1,2,4]triazolo[4,3-a]pyrimidin-7 (1H)-one] | –
3 | 5.66 µM | – | COCc1cc(=O)[nH]c2nnc(SCc3cc(F)ccc3F)n12 [Compound 31, 3-[(2,5-difluorobenzyl)sulfanyl]-5-(methoxymethyl) [1,2,4]triazolo[4,3-a]pyrimidin-7 (8H)-one] | –
4 | 5.39 µM | – | CCCc1cc(=O)[nH]c2nnc(SCc3cc(F)ccc3C#N)n12 [Compound 8, 4-fluoro-2-{[(7-oxo-5-propyl-7,8-dihydro[1,2,4]triazolo[4,3-a]pyrimidin-3-yl)sulfanyl]methyl}benzonitrile] | –
5 | 0.593 µM | – | O=c1cc(C2CC2)n2c(SCc3c(F)cccc3Cl)nnc2[nH]1 [Compound 39, 3-[(2-chloro-6-fluorobenzyl)sulfanyl]-5-cyclopropyl[1,2,4]triazolo[4,3-a]pyrimidin-7 (8H)-one] | –
6 | 11.2 µM | – | CCCc1cc(=O)[nH]c2nnc(S(=O)(=O)Cc3c(F)cccc3Cl)n12 [Compound 50, 3-[(2-chloro-6-fluorobenzyl)sulfonyl]-5-propyl[1,2,4]triazolo[4,3-a]pyrimidin-7 (8H)-one] | –
7 | 5.81 µM | – | Cc1cc(=O)[nH]c2nnc(SCc3cc(F)ccc3F)n12 [Compound 29, 3-[(2,5-difluorobenzyl)sulfanyl]-5-methyl[1,2,4]triazolo[4,3-a]pyrimidin-7 (8H)-one] | –
8 | 2.09 µM | – | CCCc1cc(=O)[nH]c2nnc(SCc3ccoc3)n12 [Compound 15, 3-[(furan-3-ylmethyl)sulfanyl]-5-propyl[1,2,4]triazolo[4,3-a]pyrimidin-7 (8H)-one] | –
9 | 4.21 µM | – | CCCc1cc(=O)[nH]c2nnc(SCc3ccc(C#N)cc3)n12 [Compound 18, 4-{[(7-oxo-5-propyl-7,8-dihydro[1,2,4]triazolo[4,3-a]pyrimidin-3-yl)sulfanyl]methyl}benzonitrile] | –
10 | 4.69 µM | – | N#Cc1ccc(CSc2nnc3[nH]c(=O)cc(Cc4ccccc4)n23)cc1 [Compound 46, 4-{[(5-benzyl-7-oxo-7,8-dihydro[1,2,4]triazolo[4,3-a]pyrimidin-3-yl)sulfanyl]methyl}benzonitrile] | –
11 | 0.878 µM | 0.185 µM | CCCc1cc(=O)[nH]c2nnc(SCc3cc(F)ccc3OC)n12 [Compound 9, 3-[(5-fluoro-2-methoxybenzyl)sulfanyl]-5-propyl[1,2,4]triazolo[4,3-a]pyrimidin-7 (8H)-one] | –
12 | 2.5 µM | – | CCCc1cc(=O)[nH]c2nnc(SCc3cccc4ccccc34)n12 [Compound 90, 3-[(naphthalen-1-ylmethyl)sulfanyl]-5-propyl[1,2,4]triazolo[4,3-a]pyrimidin-7 (8H)-one] | –
13 | 0.391 µM | 0.218 µM | CC(C)Cc1cc(=O)[nH]c2nnc(SCc3c(F)cccc3Cl)n12 [Compound 40, 3-[(2-chloro-6-fluorobenzyl)sulfanyl]-5-(2-methylpropyl) [1,2,4]triazolo[4,3-a]pyrimidin-7 (8H)-one] | –
14 | 3.48 µM | – | CCCc1cc(=O)[nH]c2nnc(SCc3ccc4occc4c3)n12 [Compound 19, 3-[(1-benzofuran-5-ylmethyl)sulfanyl]-5-propyl[1,2,4]triazolo[4,3-a]pyrimidin-7 (8H)-one] | –
15 | 0.873 µM | – | CCCc1c(C)c(=O)[nH]c2nnc(SCc3c(F)cccc3Cl)n12 [Compound 48, 3-[(2-chloro-6-fluorobenzyl)sulfanyl]-6-methyl-5-propyl[1,2,4]triazolo[4,3-a]pyrimidin-7 (8H)-one] | –
16 | 1.75 µM | – | CCCc1cc(=O)[nH]c2nnc(SCCc3ccccc3)n12 [Compound 14, 3-[(2-phenylethyl)sulfanyl]-5-propyl[1,2,4]triazolo[4,3-a]pyrimidin-7 (8H)-one] | –
17 | 0.129 µM | – | O=c1cc(CC2CC2)n2c(SCc3c(F)cccc3Cl)nnc2[nH]1 [Compound 41, 3-[(2-chloro-6-fluorobenzyl)sulfanyl]-5-(cyclopropylmethyl) [1,2,4]triazolo[4,3-a]pyrimidin-7 (8H)-one] | –
18 | 3.65 µM | – | CCCc1cc(=O)[nH]c2nnc(CCc3ccccc3)n12 [Compound 51, 3-(2-phenylethyl)-5-propyl[1,2,4]triazolo[4,3-a]pyrimidin-7 (8H)-one] | –
19 | 1.32 µM | 1.04 µM | O=c1cc(CCOCc2ccccc2Cl)n2c(SCc3cc(F)ccc3F)nnc2[nH]1 [Compound 33, 5-{2-[(2-chlorobenzyl)oxy]ethyl}-3-[(2,5-difluorobenzyl)sulfanyl][1,2,4]triazolo[4,3-a]pyrimidin-7 (8H)-one] | –
20 | 10.2 µM | – | CCCc1cc(=O)[nH]c2nnc(SCc3cccc(C#N)c3)n12 [Compound 7, 3-{[(7-oxo-5-propyl-7,8-dihydro[1,2,4]triazolo[4,3-a]pyrimidin-3-yl)sulfanyl]methyl}benzonitrile] | –
21 | 0.943 µM | 1.65 µM | O=c1cc(CCOCc2ccccc2)n2c(SCc3cc(F)ccc3F)nnc2[nH]1 [Compound 30, 5-[2-(benzyloxy)ethyl]-3-[(2,5-difluorobenzyl)sulfanyl][1,2,4]triazolo[4,3-a]pyrimidin-7 (8H)-one] | –
22 | 0.593 µM | 0.171 µM | CCCc1cc(=O)[nH]c2nnc(SCc3c(C)cccc3C)n12 [Compound 25, 3-[(2,6-dimethylbenzyl)sulfanyl]-5-propyl[1,2,4]triazolo[4,3-a]pyrimidin-7 (8H)-one] | –
23 | 12.5 µM | – | Cc1cc(=O)[nH]c2nnc(SCc3ccc(Cl)cc3)n12 [Compound 85, 3-[(4-chlorobenzyl)sulfanyl]-5-methyl[1,2,4]triazolo[4,3-a]pyrimidin-7 (8H)-one] | –
24 | 0.561 µM | 0.158 µM | CCCc1cc(=O)[nH]c2nnc(SCc3cc(F)ccc3C)n12 [Compound 12, 3-[(5-fluoro-2-methylbenzyl)sulfanyl]-5-propyl[1,2,4]triazolo[4,3-a]pyrimidin-7 (8H)-one] | –
25 | 2.2 µM | – | CCCc1cc(=O)[nH]c2nnc(SCc3cc(F)cc(F)c3)n12 [Compound 3, 3-[(3,5-difluorobenzyl)sulfanyl]-5-propyl[1,2,4]triazolo[4,3-a]pyrimidin-7 (8H)-one] | –
26 | 2.03 µM | – | CCCc1cc(=O)[nH]c2nnc(SCc3cccc(OC)c3)n12 [Compound 17, 3-[(3-methoxybenzyl)sulfanyl]-5-propyl[1,2,4]triazolo[4,3-a]pyrimidin-7 (8H)-one] | –
